Assay results reported in paper PMC3625590, “NBM-T-L-BMX-OS01, Semisynthesized from Osthole, Is a Novel Inhibitor of Histone Deacetylase and Enhances Learning and Memory in Rats” (Evidence-based Complementary and Alternative Medicine : eCAM, 2013).
Structures can show the parent of a compound that is named as a salt.

Tests used:
Sco-induced amnesia rats [1] = assay: Water-maze learning, Sco-induced memory impairment; assay type: in vivo, Sprague-Dawley rats; settings: Sco 1.5 mg/kg/d; BMX or SAHA 5 mg/kg/d i.p.
Procedure: SAHA was supplied by NatureWise Biotech and Medicals Corporation (Taipei, Taiwan). […] (St. Louis, MO, USA). The BMX and SAHA stock (100 mg/mL) was dissolved in DMSO and diluted with saline to a final concentration of 0.5 mg/mL (in 0.5% DMSO/saline). […] SD rats were randomly divided into 3 groups. For the naïve animal experiments, the BMX-injected or SAHA-injected groups were injected with BMX (5 mg/kg/d) or SAHA (5 mg/kg/d) intraperitoneally 7 d prior to behavioral experiments and during the experimentation. The control group received the 0.5% DMSO/saline injection. The injection volume was 10 μL/g of body weight. The injections were performed once per day. For the amnesia experiment, the protocol was adopted from previous studies with modifications. […] The control group received the 0.5% DMSO/saline injection. The injection volume was 10 μL/g of body weight. […] The method was adopted from that of a previous study with modifications. A plastic circular pool 2.0 m in diameter and 0.6 m in height was filled with water (25 ± 2°C) to a depth of 20 cm. A circular platform (8 cm in diameter) was placed at a specific location from the edge of the pool and submerged 2-3 cm below the water surface. Water was made cloudy by adding toxic-free dye. Distinctive visual cues were set on the wall. For spatial learning, animals were subjected to 3 trials per day, with one trial early in the morning, one trial at noon, and another in the late afternoon. The training procedure lasted 4 days, and a total of 12 trials were given. This procedure was adopted because spaced training is a better paradigm to facilitate memory consolidation. For these trials, the rats were positioned at different starting points spaced equally around the perimeter of the pool in random order. They had 120 s to find the hidden platform. If a rat could not find the platform, it was guided to the platform and was allowed to remain there for 20 s. The time each animal took to reach the platform was recorded as the escape latency. A probe trial of 120 s was given on day 5 to test their memory retention. The rats were placed in the pool with the platform removed, and the time they spent in each quadrant (Quadrants 1, 2, 3, and 4) was recorded. Quadrant 4 is the target quadrant. For the trained and swimming control experiments, rats in the trained group were subjected to the regular water maze learning procedure. At the end of the experiment, the rats were subjected to visible platform learning. For visible platform learning, a flag was mounted on the platform, and the platform was raised 2.5 cm above the surface of the water. In addition, the dye had not been added, so that the animals could see the location of the platform from the water. […]

Sco-induced amnesia rats [2] = assay: Novel object recognition, Sco-induced memory impairment; assay type: in vivo, Sprague-Dawley rats; settings: Sco 1.5 mg/kg/d; BMX or SAHA 5 mg/kg/d i.p.; 8 h
Procedure: SAHA was supplied by NatureWise Biotech and Medicals Corporation (Taipei, Taiwan). […] (St. Louis, MO, USA). The BMX and SAHA stock (100 mg/mL) was dissolved in DMSO and diluted with saline to a final concentration of 0.5 mg/mL (in 0.5% DMSO/saline). […] SD rats were randomly divided into 3 groups. For the naïve animal experiments, the BMX-injected or SAHA-injected groups were injected with BMX (5 mg/kg/d) or SAHA (5 mg/kg/d) intraperitoneally 7 d prior to behavioral experiments and during the experimentation. The control group received the 0.5% DMSO/saline injection. The injection volume was 10 μL/g of body weight. The injections were performed once per day. For the amnesia experiment, the protocol was adopted from previous studies with modifications. […] The control group received the 0.5% DMSO/saline injection. The injection volume was 10 μL/g of body weight. […] The method used was adopted from that of a previous study with modifications. During familiarization, rats were allowed to explore 2 identical objects in an open field box (90 × 70 × 60 cm) for 5 min. The criteria used for exploration were a distance less than 1.5 cm between the rat and the object or direct contact with the object. […] The time that each rat spent exploring the 2 objects during a 5 min period was recorded. […]

Q: Which results are given for `CN1[C@@H]2C[C@@H](OC(=O)[C@H](CO)c3ccccc3)C[C@H]1[C@@H]1O[C@@H]12` [Sco, Scopolamine hydrochloride]?
A: escape latency in finding the hidden platform (Sco-induced amnesia rats [1]): showed longer escape latency; probe trial, time spent in target quadrant (Sco-induced amnesia rats [1]): spent less time in the quadrant where the platform had been placed; exploratory preference for the novel object (NO) (Sco-induced amnesia rats [2]): showed no exploratory preference for the NO
